Laboratory results as given in patent US11052043B2, “Sustained-release injectable formulation” (YISSUM RESEARCH DEVELOPMENT COMPANY OF THE HEBREW …, priority 2011, dated 2021).
In brackets after ≈: the same amount, converted by molar mass.

Columns and labels:
[1] = Minimum inhibitory concentration (MIC) of amoxicillin; format: cell-based; details: in vitro MIC multiplied by a factor of 4
[2] = cited from earlier work
[3] = cited from earlier work; remark: listed apart in the source

Question: What does the source list for `CC1(C)S[C@@H]2[C@H](NC(=O)[C@H](N)c3ccc(O)cc3)C(=O)N2[C@H]1C(=O)O` [amoxicillin]?
Answer: in vivo minimum inhibitory concentration (MIC) as set [1]: 0.4 µg/mL; MIC value determined in vitro [2]: 0.1 µg/mL (≈ 0.274 µM)

Question: With `C=CC1=C(C(=O)O)N2C(=O)[C@@H](NC(=O)/C(=N\O)c3csc(N)n3)[C@H]2SC1` [cefdinir] as the molecule, how does the solubility of cefdinir ([3]; 30° C.) read?
Answer: Its solubility of cefdinir is 0.43 % (w/v).

Question: For `CCN1CCN(c2cc3c(cc2F)c(=O)c(C(=O)O)cn3C2CC2)CC1` [enrofloxacin], which solubility of enrofloxacin ([3]; 25° C.) is on record?
Answer: Its solubility of enrofloxacin is 0.25 % (w/v).
